Entries after “also recorded” stand apart in the source; their conditions may differ.
Experiments:
IL-1RA = IL-1RA ELISA; assay type: cell-based, murine; conditions: RAW 264.7 cells, 24 h
Description: The murine macrophage cell line RAW 264.7 was purchased from ATCC (Manassas, Va.) and maintained in DMEM (Life Technologies, Carlsbad, Calif.) supplemented with 10% FBS. Soluble CFZ or isolated CLDIs were added at various concentrations in DMEM with 5% FBS to 6-well plates containing 4×10^5 cells/well and incubated (24 h at 37° C. and 5% CO2). Culture supernatants were harvested at 24 h, centrifuged (1500×g for 5 min), and stored (−20° C.) in frozen aliquots prior to analysis. For experiments involving TLR stimulation, cells were washed twice with pre-warmed DPBS to remove extracellular, non-phagocytosed CLDIs or CFZ, and then the cells were serum-starved for 18 h in DMEM. Supernatants were collected from unstimulated cells and cells stimulated with 200 ng/ml Pam3 or 1 μg/ml LPS in DMEM.
The media of cells with or without 6 h TLR stimulation by Pam3 or LPS was harvested, and TNFα and IL-1RA levels were measured by ELISA (Duoset, R&D Systems, Minneapolis, Minn.) in duplicate wells according to the manufacturer's instructions. The cytokine concentrations were expressed as picogram per milligram of cell lysate. Experiments were repeated three times and values are expressed as the mean±SD.

[1] = mice; cited from earlier work
IL-1RA, TNFα, IL-1β = assay: Serum cytokines of CFZ-treated mice; assay type: in vivo
Description: (§1) Clofazimine (CFZ, Sigma-Aldrich, C8895) was prepared in sesame oil (Shirakiku, Japan, or Roland, China) and Powdered Lab Diet 5001 (PMI International, Inc., St. Louis, Mo.) and orally administrated to Wild-type (WT) C57BL/6 mice or IL-1RA^−/− (4-5 week old, Jackson Laboratory, Bar Harbor, Me.) for up to 8 weeks ad libitum as previously described (Baik et al., 2013, supra; Baik et al., 2011, supra). Control mice were fed with the same diet without CFZ. The animal protocol was approved by the University of Michigan's Animal Care and Use Committee in accordance with the National Institutes of Health guidelines (UCUCA #PRO0005111).
Mouse Bronchoalveolar Lavage (BAL) Harvest and Isolation of Alveolar Macrophages, Immunohistochemistry and Imaging, SDS-PAGE and Western Blot, Cytokine Measurements

[2] = system: carrageenan-induced footpad inflammation; assay: Carrageenan foot edema test; assay type: in vivo, mice
Description: as §1
Foot inflammation in response to carrageenan injection was conducted in CFZ and control mice as previously described (Otterness I G, et al., Moore P F (1988) Immunochemical Techniques Part L: Chemotaxis and Inflammation (Elsevier) doi:10.1016/0076-6879(88)62086-6). In brief, the volume of each hind paw was measured with a caliper before and after the intraplantar injection of 30 μl 2% carrageenan ([…]) in PBS or equal volume of PBS in the contralateral paw. Paw swelling was measured at 4 and 48 h after injection, after which the animals were euthanized by exsanguination while deeply anesthetized with an intraperitoneal injection of ketamine (100 mg/kg) and xylazine (10 mg/kg), and the skin tissues of the plantar region were harvested for cytokine assay (see below).

Compound: CC(C)/N=c1\cc2n(-c3ccc(Cl)cc3)c3ccccc3nc-2cc1Nc1ccc(Cl)cc1 [CFZ, 3-(p-chloroanilino)-10-(p-chlorophenyl)-2, 10-dihydro-2-isopropyliminophenazine]
- IL-1RA secretion (IL-1RA): did not affect IL-1RA secretion
- pharmacokinetic half-life t1/2 [1]: ~170 h
- serum IL-1RA levels (IL-1RA, TNFα, IL-1β; 8 weeks): increase in serum IL-1RA levels
- TNFα or IL-1β in the serum (IL-1RA, TNFα, IL-1β; all conditions): not possible to detect
- footpad homogenate IL-1RA levels ([2]; 2 weeks of CFZ treatment, 48 h): reduced
- paw swelling vs untreated mice ([2]; 2 weeks of CFZ treatment, 48 h (legend: 4 and 48 h)): only a modest reduction in paw swelling; also recorded: only a minor reduction in swelling at 4 and 48 h
- reduction in paw swelling vs untreated mice ([2]; 8 week CFZ-treated, 4 h post-injection): 57%
- plasma IL-1RA levels after carrageenan ([2]; 8 week CFZ-treated, 4 h post-injury): rapidly declined at 4 h post-injury
- footpad homogenate IL-1RA levels ([2]; 8 week CFZ-treated, 48 h): increased
- footpad homogenate IL-1β and TNFα levels ([2]; 8 week CFZ-treated, 48 h): dramatically reduced
- paw swelling vs untreated mice ([2]; 8 week CFZ-treated, 48 h post-injection): strikingly reduced swelling
- anti-inflammatory effect (paw swelling) ([2]; IL-1RA KO mice, 6 weeks CFZ): greatly diminished in IL-1RA KO mice
- paw swelling ([2]; WT mice, 6 weeks CFZ): reduced swelling compared to untreated and injured mice
- footpad IL-1β levels ([2]; WT mice, 6 weeks CFZ, injured): significantly reduced
- plasma levels of TNFα and IL-1β ([2]; all mice, ELISA detection limit): < 15 pg/mL
